# Test results reported in PubChem BioAssay (NCI).
#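 Five concentrations, 48 hours, 96-well plates. GI50 is the concentration that inhibits growth by half. At the TGI there is no net growth.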
# Key:
# Assay in all cases: NCI-60 cell line screen, 48 h
# [1] = tested on: 786-0 renal
# [2] = tested on: A498 renal
# [3] = tested on: A549 NSCLC
# [4] = tested on: ACHN renal
# [5] = tested on: BT-549 breast
# [6] = tested on: CCRF-CEM leukemia
# [7] = tested on: COLO 205 colon
# [8] = tested on: DU-145 prostate
# [9] = tested on: EKVX NSCLC
# [10] = tested on: HCC-2998 colon
# [11] = tested on: HCT-116 colon
# [12] = tested on: HCT-15 colon
# [13] = tested on: HL-60(TB) leukemia
# [14] = tested on: HOP-62 NSCLC
# [15] = tested on: HOP-92 NSCLC
# [16] = tested on: HS 578T breast
# [17] = tested on: HT29 colon
# [18] = tested on: K-562 leukemia
# [19] = tested on: KM12 colon
# [20] = tested on: LOX IMVI melanoma
# [21] = tested on: M14 melanoma
# [22] = tested on: MALME-3M melanoma
# [23] = tested on: MCF7 breast
# [24] = tested on: MDA-MB-231 breast
# [25] = tested on: MDA-MB-435
# [26] = tested on: MOLT-4 leukemia
# [27] = tested on: NCI-H226 lung
# [28] = tested on: NCI-H23 lung
# [29] = tested on: NCI-H460 lung
# [30] = tested on: NCI-H522 lung
# [31] = tested on: NCI/ADR-RES ovarian
# [32] = tested on: OVCAR-4 ovarian
# [33] = tested on: OVCAR-5 ovarian
# [34] = tested on: OVCAR-8 ovarian
# [35] = tested on: PC-3 prostate
# [36] = tested on: RPMI-8226 leukemia
# [37] = tested on: RXF 393 renal
# [38] = tested on: SF-268 CNS
# [39] = tested on: SF-295 CNS
# [40] = tested on: SF-539 CNS
# [41] = tested on: SK-MEL-2 melanoma
# [42] = tested on: SK-MEL-28 melanoma
# [43] = tested on: SK-MEL-5 melanoma
# [44] = tested on: SK-OV-3 ovarian
# [45] = tested on: SN12C renal
# [46] = tested on: SNB-19 CNS
# [47] = tested on: SNB-75 CNS
# [48] = tested on: SR leukemia
# [49] = tested on: SW-620 colon
# [50] = tested on: T-47D breast
# [51] = tested on: TK-10 renal
# [52] = tested on: U251 CNS
# [53] = tested on: UACC-257 melanoma
# [54] = tested on: UACC-62 melanoma
# [55] = tested on: UO-31 renal
# [56] = tested on: CAKI-1 renal
# [57] = tested on: IGROV1 ovarian
# [58] = tested on: OVCAR-3 ovarian
smiles,measurement,setting,value
C#C[C@@]1(O)[C@@H](CO)O[C@@H](n2cc(I)c3c(N)ncnc32)[C@@H]1O,GI50,[1],334 nM
same,TGI,[1],3240 nM
same,GI50,[2],309 nM
same,TGI,[2],1430 nM
same,GI50,[3],298 nM
same,TGI,[3],> 100000 nM
same,GI50,[4],314 nM
same,TGI,[4],> 100000 nM
same,GI50,[5],259 nM
same,TGI,[5],4010 nM
same,GI50,[6],271 nM
same,TGI,[6],> 100000 nM
same,GI50,[7],87.4 nM
same,TGI,[7],706 nM
same,GI50,[8],127 nM
same,TGI,[8],> 100000 nM
same,GI50,[9],408 nM
same,TGI,[9],5370 nM
same,GI50,[10],243 nM
same,TGI,[10],3010 nM
same,GI50,[11],43.4 nM
same,TGI,[11],> 100000 nM
same,GI50,[12],137 nM
same,TGI,[12],> 100000 nM
same,GI50,[13],46.2 nM
same,TGI,[13],262 nM
same,GI50,[14],747 nM
same,TGI,[14],8690 nM
same,GI50,[15],73.6 nM
same,TGI,[15],2220 nM
same,GI50,[16],785 nM
same,TGI,[16],7830 nM
same,GI50,[17],23.7 nM
same,TGI,[17],4750 nM
same,GI50,[18],64 nM
same,TGI,[18],> 100000 nM
same,GI50,[19],96.2 nM
same,TGI,[19],> 100000 nM
same,GI50,[20],81.2 nM
same,TGI,[20],1220 nM
same,GI50,[21],490 nM
same,TGI,[21],9510 nM
same,GI50,[22],826 nM
same,TGI,[22],3390 nM
same,GI50,[23],< 11.7 nM
same,TGI,[23],> 100000 nM
same,GI50,[24],185 nM
same,TGI,[24],> 100000 nM
same,GI50,[25],473 nM
same,TGI,[25],12800 nM
same,GI50,[26],48.9 nM
same,TGI,[26],831 nM
same,GI50,[27],1720 nM
same,TGI,[27],> 100000 nM
same,GI50,[28],327 nM
same,TGI,[28],6480 nM
same,GI50,[29],89.5 nM
same,TGI,[29],1910 nM
same,GI50,[30],99.3 nM
same,TGI,[30],600 nM
same,GI50,[31],73.1 nM
same,TGI,[31],7900 nM
same,GI50,[32],809 nM
same,TGI,[32],> 100000 nM
same,GI50,[33],933 nM
same,TGI,[33],> 100000 nM
same,GI50,[34],45.6 nM
same,GI50,[35],75.6 nM
same,TGI,[35],> 38100 nM
same,GI50,[36],343 nM
same,TGI,[36],5510 nM
same,GI50,[37],440 nM
same,TGI,[37],2260 nM
same,GI50,[38],1100 nM
same,TGI,[38],49900 nM
same,GI50,[39],432 nM
same,TGI,[39],3770 nM
same,GI50,[40],378 nM
same,TGI,[40],2550 nM
same,GI50,[41],239 nM
same,TGI,[41],1760 nM
same,GI50,[42],1960 nM
same,TGI,[42],11400 nM
same,GI50,[43],209 nM
same,TGI,[43],3300 nM
same,GI50,[44],34.3 nM
same,TGI,[44],729 nM
same,GI50,[45],97.6 nM
same,TGI,[45],> 100000 nM
same,GI50,[46],99.6 nM
same,TGI,[46],> 50000 nM
same,GI50,[47],457 nM
same,TGI,[47],1990 nM
same,GI50,[48],262 nM
same,TGI,[48],> 28500 nM
same,GI50,[49],58.1 nM
same,TGI,[49],> 100000 nM
same,TGI,[50],127 nM
same,GI50,[51],551 nM
same,TGI,[51],5510 nM
same,GI50,[52],73.4 nM
same,TGI,[52],> 32000 nM
same,GI50,[53],2330 nM
same,TGI,[53],27800 nM
same,GI50,[54],615 nM
same,TGI,[54],2780 nM
same,GI50,[55],90.1 nM
same,TGI,[55],3190 nM
CS(=O)(=O)Nc1cccc(-c2ccc3ncnc(Nc4ccc(F)c(Cl)c4)c3c2)c1,GI50,[1],1710 nM
same,TGI,[1],3760 nM
same,GI50,[2],118 nM
same,TGI,[2],2270 nM
same,GI50,[3],1580 nM
same,TGI,[3],7490 nM
same,GI50,[4],113 nM
same,TGI,[4],6060 nM
same,GI50,[5],1810 nM
same,TGI,[5],4540 nM
same,GI50,[56],447 nM
same,TGI,[56],19200 nM
same,GI50,[6],3050 nM
same,TGI,[6],> 100000 nM
same,GI50,[7],1600 nM
same,TGI,[7],3350 nM
same,GI50,[8],1290 nM
same,TGI,[8],13800 nM
same,GI50,[9],129 nM
same,TGI,[9],3720 nM
same,GI50,[10],1940 nM
same,TGI,[10],3840 nM
same,GI50,[11],1590 nM
same,TGI,[11],3290 nM
same,GI50,[12],1470 nM
same,TGI,[12],3860 nM
same,GI50,[13],3530 nM
same,TGI,[13],43300 nM
same,GI50,[14],1810 nM
same,TGI,[14],4200 nM
same,GI50,[15],1720 nM
same,TGI,[15],5250 nM
same,GI50,[16],1850 nM
same,TGI,[16],5550 nM
same,GI50,[17],1640 nM
same,TGI,[17],3730 nM
same,GI50,[57],1090 nM
same,TGI,[57],5410 nM
same,GI50,[18],1980 nM
same,TGI,[18],5620 nM
same,GI50,[19],2500 nM
same,TGI,[19],8300 nM
same,GI50,[20],1460 nM
same,TGI,[20],2890 nM
same,GI50,[21],1760 nM
same,TGI,[21],3660 nM
same,GI50,[22],1970 nM
same,TGI,[22],5100 nM
same,GI50,[23],1560 nM
same,TGI,[23],6930 nM
same,GI50,[24],1400 nM
same,TGI,[24],3450 nM
same,GI50,[25],1910 nM
same,TGI,[25],4750 nM
same,GI50,[26],1800 nM
same,TGI,[26],12400 nM
same,GI50,[27],1800 nM
same,TGI,[27],5330 nM
same,GI50,[28],2150 nM
same,TGI,[28],6570 nM
same,GI50,[29],2150 nM
same,TGI,[29],5600 nM
same,GI50,[30],1040 nM
same,TGI,[30],3130 nM
same,GI50,[31],2030 nM
same,TGI,[31],7540 nM
same,GI50,[58],1600 nM
same,TGI,[58],6270 nM
same,GI50,[32],2420 nM
same,TGI,[32],> 30600 nM
same,GI50,[33],1890 nM
same,TGI,[33],6660 nM
same,GI50,[34],2230 nM
same,TGI,[34],8530 nM
same,GI50,[35],1940 nM
same,TGI,[35],5890 nM
same,GI50,[36],2070 nM
same,TGI,[36],7590 nM
same,GI50,[37],1490 nM
same,TGI,[37],4440 nM
same,GI50,[38],1970 nM
same,TGI,[38],9140 nM
same,GI50,[39],1470 nM
same,TGI,[39],3080 nM
same,GI50,[40],1830 nM
same,TGI,[40],4200 nM
same,GI50,[41],1980 nM
same,TGI,[41],4150 nM
same,GI50,[42],2280 nM
same,TGI,[42],7200 nM
same,GI50,[43],1640 nM
same,TGI,[43],3190 nM
same,GI50,[44],233 nM
same,TGI,[44],1380 nM
same,GI50,[45],1930 nM
same,TGI,[45],6590 nM
same,GI50,[46],1550 nM
same,TGI,[46],4780 nM
same,GI50,[47],4320 nM
same,TGI,[47],> 30200 nM
same,GI50,[48],1430 nM
same,TGI,[48],5320 nM
same,GI50,[50],731 nM
same,TGI,[50],5170 nM
same,GI50,[51],80.1 nM
same,TGI,[51],2260 nM
same,GI50,[52],1550 nM
same,TGI,[52],3340 nM
same,GI50,[53],2050 nM
same,TGI,[53],5070 nM
same,GI50,[54],1840 nM
same,TGI,[54],3830 nM
same,GI50,[55],706 nM
same,TGI,[55],3100 nM
